Results on eight molecules are retold here after article PMC6616564, “Identification of ryuvidine as a KDM5A inhibitor” (Scientific Reports, 2019).

Holding throughout (assay type): biochemical
Experiment [1] addresses T1, KDM5A (His-tagged KDM5A 1-797) (Homo sapiens, UniProt P29375).
T1 construct: residues 1-797, C-terminally truncated, N-terminal His6 tag, Sf9 baculovirus, HisTrap purified
T1 sequence (P29375 1-797): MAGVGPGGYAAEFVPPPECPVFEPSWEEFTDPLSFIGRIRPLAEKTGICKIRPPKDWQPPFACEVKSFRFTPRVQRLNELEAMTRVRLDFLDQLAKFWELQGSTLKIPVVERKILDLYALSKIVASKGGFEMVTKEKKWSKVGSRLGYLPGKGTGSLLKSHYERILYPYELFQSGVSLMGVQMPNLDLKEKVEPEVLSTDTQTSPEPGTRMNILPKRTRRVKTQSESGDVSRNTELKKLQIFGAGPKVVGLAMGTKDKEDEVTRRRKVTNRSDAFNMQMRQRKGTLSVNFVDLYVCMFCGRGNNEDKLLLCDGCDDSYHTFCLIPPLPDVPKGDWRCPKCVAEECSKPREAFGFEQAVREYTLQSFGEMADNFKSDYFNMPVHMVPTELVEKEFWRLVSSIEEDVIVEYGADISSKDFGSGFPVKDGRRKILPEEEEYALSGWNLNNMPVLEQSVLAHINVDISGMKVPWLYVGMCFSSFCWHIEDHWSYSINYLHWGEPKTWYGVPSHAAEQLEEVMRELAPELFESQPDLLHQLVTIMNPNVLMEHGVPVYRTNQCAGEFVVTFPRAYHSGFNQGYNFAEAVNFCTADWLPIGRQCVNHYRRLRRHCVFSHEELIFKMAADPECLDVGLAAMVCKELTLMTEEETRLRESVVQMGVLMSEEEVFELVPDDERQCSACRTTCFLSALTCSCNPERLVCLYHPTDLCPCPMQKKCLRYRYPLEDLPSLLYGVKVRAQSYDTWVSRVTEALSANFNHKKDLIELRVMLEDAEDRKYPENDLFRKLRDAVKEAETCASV
The experiment is described as follows: AlphaScreen H3K4me3 demethylation. The source says: AlphaScreen H3K4me3 demethylation on KDM5A (His-tagged KDM5A 1-797)

The target of experiment [2] is T2, KDM5C (His-tagged KDM5C 1-839) (Homo sapiens, UniProt P41229).
T2 construct: residues 1-839, C-terminally truncated, N-terminal His6 tag, Sf9 baculovirus, HisTrap purified
T2 sequence (P41229 1-839): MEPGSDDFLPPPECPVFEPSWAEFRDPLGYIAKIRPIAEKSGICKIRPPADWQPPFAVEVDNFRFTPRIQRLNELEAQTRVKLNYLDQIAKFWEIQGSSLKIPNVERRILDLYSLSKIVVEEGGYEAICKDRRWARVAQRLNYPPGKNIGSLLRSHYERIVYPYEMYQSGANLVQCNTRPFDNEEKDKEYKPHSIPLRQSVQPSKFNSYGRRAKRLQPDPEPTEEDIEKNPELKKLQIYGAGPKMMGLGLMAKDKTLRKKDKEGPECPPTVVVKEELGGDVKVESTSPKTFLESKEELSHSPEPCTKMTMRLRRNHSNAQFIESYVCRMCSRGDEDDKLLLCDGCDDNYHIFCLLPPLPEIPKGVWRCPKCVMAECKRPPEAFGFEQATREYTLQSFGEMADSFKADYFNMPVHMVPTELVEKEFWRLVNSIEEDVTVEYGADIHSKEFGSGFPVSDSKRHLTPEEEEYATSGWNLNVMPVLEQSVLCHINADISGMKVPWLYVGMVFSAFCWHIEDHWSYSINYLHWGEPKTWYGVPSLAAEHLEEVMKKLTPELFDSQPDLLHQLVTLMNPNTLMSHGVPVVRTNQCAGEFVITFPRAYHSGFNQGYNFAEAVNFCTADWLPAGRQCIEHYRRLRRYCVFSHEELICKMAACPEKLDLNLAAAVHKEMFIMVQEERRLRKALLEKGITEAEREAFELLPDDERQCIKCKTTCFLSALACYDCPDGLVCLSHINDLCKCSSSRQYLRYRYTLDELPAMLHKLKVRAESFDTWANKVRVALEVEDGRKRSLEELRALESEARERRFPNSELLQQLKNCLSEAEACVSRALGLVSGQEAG
The experiment is described as follows: MALDI-TOF MS demethylation assay. An excerpt:
MALDI-TOF MS demethylation assay on KDM5C (His-tagged KDM5C 1-839)

The target of experiment [3] is T3, KDM5B (His-tagged KDM5B 1-769) (Homo sapiens, UniProt Q9UGL1).
T3 construct: residues 1-769, C-terminally truncated, N-terminal His6 tag, Sf9 baculovirus, HisTrap purified
T3 sequence (Q9UGL1 1-769): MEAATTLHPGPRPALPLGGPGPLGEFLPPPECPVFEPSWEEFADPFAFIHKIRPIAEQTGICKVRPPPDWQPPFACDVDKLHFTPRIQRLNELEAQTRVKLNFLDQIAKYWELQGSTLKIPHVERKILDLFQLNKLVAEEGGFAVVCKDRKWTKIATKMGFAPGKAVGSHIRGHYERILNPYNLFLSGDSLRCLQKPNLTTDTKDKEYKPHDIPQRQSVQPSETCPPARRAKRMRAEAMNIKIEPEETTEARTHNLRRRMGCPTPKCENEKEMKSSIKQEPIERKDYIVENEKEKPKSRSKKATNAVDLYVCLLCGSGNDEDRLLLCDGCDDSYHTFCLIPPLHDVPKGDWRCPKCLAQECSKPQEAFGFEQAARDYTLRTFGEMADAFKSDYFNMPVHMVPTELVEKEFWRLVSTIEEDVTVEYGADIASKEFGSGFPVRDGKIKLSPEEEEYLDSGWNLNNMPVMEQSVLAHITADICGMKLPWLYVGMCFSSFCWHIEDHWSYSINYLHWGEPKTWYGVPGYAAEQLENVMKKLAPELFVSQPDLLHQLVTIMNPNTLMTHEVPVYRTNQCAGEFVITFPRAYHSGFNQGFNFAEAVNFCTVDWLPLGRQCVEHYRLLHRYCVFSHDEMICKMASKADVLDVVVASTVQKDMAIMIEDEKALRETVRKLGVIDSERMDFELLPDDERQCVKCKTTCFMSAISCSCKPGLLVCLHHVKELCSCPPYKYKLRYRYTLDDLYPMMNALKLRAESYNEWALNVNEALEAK
Briefly: MALDI-TOF MS demethylation assay. The source says:
MALDI-TOF MS demethylation assay on KDM5B (His-tagged KDM5B 1-769)

Experiment [4] addresses T4, LSD1 (His-tagged human full-length LSD1) (Homo sapiens, UniProt O60341).
T4 construct: gene KDM1A
Briefly: MALDI-TOF MS demethylation assay. Particulars: no inhibition at 50 μM; 30 μM H3K4me2 peptide, pH 7.5, 37 °C. The source says: MALDI-TOF MS demethylation assay on LSD1 (His-tagged human full-length LSD1)

In experiment [5] the target is T5, LSD2 (His-tagged ΔN25 human LSD2) (Homo sapiens, UniProt Q8NB78).
T5 construct: gene KDM1B
T5 sequence (Q8NB78 26-822): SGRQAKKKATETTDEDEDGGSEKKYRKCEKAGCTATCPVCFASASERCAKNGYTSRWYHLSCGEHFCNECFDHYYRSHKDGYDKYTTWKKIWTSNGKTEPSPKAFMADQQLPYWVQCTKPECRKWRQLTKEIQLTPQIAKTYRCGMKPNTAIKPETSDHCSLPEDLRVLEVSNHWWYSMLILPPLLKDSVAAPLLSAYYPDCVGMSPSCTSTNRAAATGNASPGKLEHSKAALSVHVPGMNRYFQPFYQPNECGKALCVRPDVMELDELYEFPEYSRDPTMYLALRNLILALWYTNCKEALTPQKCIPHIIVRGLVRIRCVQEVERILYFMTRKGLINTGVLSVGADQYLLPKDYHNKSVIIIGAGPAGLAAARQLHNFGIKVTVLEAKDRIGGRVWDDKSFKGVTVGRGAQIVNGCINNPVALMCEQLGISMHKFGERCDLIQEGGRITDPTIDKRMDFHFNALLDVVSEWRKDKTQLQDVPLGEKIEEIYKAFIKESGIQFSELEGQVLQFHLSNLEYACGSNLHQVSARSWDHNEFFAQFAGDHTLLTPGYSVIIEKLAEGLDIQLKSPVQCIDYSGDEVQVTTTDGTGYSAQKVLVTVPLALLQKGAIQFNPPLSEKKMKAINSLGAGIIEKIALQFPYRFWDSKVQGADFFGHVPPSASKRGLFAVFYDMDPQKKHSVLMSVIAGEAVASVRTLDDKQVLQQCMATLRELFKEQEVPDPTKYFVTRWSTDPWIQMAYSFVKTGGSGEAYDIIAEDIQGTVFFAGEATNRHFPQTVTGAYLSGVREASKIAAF
The experiment is described as follows: MALDI-TOF MS demethylation assay. Particulars: no inhibition at 50 μM; 10 μM H3K4me2 peptide, pH 8.5, 37 °C. The source says:
MALDI-TOF MS demethylation assay on LSD2 (His-tagged ΔN25 human LSD2)

Each structure is given as a SMILES string. Like-named read-outs stand apart in the source and are kept apart here. Some results are limits rather than exact numbers.

In general, IC50 refers to the midpoint of a concentration-inhibition curve.

With `CC1(C)C(=O)N=C2C1=C(O)C(=O)c1ccccc12` [BVT948], the half-maximal inhibitory concentration (IC50) in experiment [1] (read-out: IC50 (μM)^a) worked out at 2.6 µM.

Regarding `CN(C)c1ccc2nc3ccc(=[N+](C)C)cc-3sc2c1` [Methylene Blue], the IC50 in experiment [1] (read-out: IC50 (μM)^a) is 1.1 µM.

Regarding `O=C1C(SCCO)=C(SCCO)C(=O)c2ccccc21` [NSC95397], the IC50 in experiment [1] (read-out: IC50 (μM)^a) is 0.055 µM.

Regarding `O=[N+]([O-])c1ccc(O)c2ncccc12` [Nitroxoline], the IC50 in experiment [1] (read-out: IC50 (μM)^a) stood at 5 µM.

Consider `Nc1ccc2cc3ccc(N)cc3nc2c1` [Proflavine Hemisulfate], for which the IC50 in experiment [1] (read-out: IC50 (μM)^a) amounted to 1.8 µM.

For `Cc1ccc(NC2=CC(=O)c3sc(C)nc3C2=O)cc1` [Ryuvidine], the IC50 in experiment [1] (read-out: IC50 (μM)^a) was 1.4 µM; in experiment [2], 8730 ± 1800 nM; in experiment [3], 26 ± 10 nM; in experiment [4] it was > 50000 nM; in experiment [5], > 50000 nM.

`C[CH2][Hg][S]c1ccccc1C(=O)O` [Thimerosal]: 0.13 µM corresponded to half-maximal inhibition in experiment [1] (IC50).

Consider `Cc1cc2nc3ccc(N(C)C)cc3[s+]c2cc1N` [Tolonium Chloride], for which, in experiment [1] (read-out: IC50 (μM)^a), the 50% inhibitory concentration (IC50) was found to be 1.7 µM.
